In PubChem BioAssay (NCI):
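48-hour exposure; five concentrations; linearly interpolated endpoints. TGI: concentration producing complete growth inhibition.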

Columns and labels:
Assay in all cases: NCI tumour cell line growth inhibition, 48 h
786-0 renal = test system: 786-0 renal
A498 renal = test system: A498 renal
A549 NSCLC = test system: A549 NSCLC
ACHN renal = test system: ACHN renal
CAKI-1 renal = test system: CAKI-1 renal
CCRF-CEM leukemia = test system: CCRF-CEM leukemia
COLO 205 colon = test system: COLO 205 colon
DLD-1 colon = test system: DLD-1 colon
DMS 114 small cell lung = test system: DMS 114 small cell lung
DMS 273 small cell lung = test system: DMS 273 small cell lung
EKVX NSCLC = test system: EKVX NSCLC
HCC-2998 colon = test system: HCC-2998 colon
HCT-116 colon = test system: HCT-116 colon
HCT-15 colon = test system: HCT-15 colon
HL-60(TB) leukemia = test system: HL-60(TB) leukemia
HOP-18 NSCLC = test system: HOP-18 NSCLC
HOP-62 NSCLC = test system: HOP-62 NSCLC
HOP-92 NSCLC = test system: HOP-92 NSCLC
HT29 colon = test system: HT29 colon
IGROV1 ovarian = test system: IGROV1 ovarian
K-562 leukemia = test system: K-562 leukemia
KM12 colon = test system: KM12 colon
KM20L2 colon = test system: KM20L2 colon
LOX IMVI melanoma = test system: LOX IMVI melanoma
LXFL 529 NSCLC = test system: LXFL 529 NSCLC
M14 melanoma = test system: M14 melanoma
M19-MEL melanoma = test system: M19-MEL melanoma
MALME-3M melanoma = test system: MALME-3M melanoma
MOLT-4 leukemia = test system: MOLT-4 leukemia
NCI-H226 lung = test system: NCI-H226 lung
NCI-H23 lung = test system: NCI-H23 lung
NCI-H460 lung = test system: NCI-H460 lung
OVCAR-3 ovarian = test system: OVCAR-3 ovarian
OVCAR-4 ovarian = test system: OVCAR-4 ovarian
OVCAR-5 ovarian = test system: OVCAR-5 ovarian
OVCAR-8 ovarian = test system: OVCAR-8 ovarian
RPMI-8226 leukemia = test system: RPMI-8226 leukemia
RXF 393 renal = test system: RXF 393 renal
SF-268 CNS = test system: SF-268 CNS
SF-295 CNS = test system: SF-295 CNS
SF-539 CNS = test system: SF-539 CNS
SK-MEL-2 melanoma = test system: SK-MEL-2 melanoma
SK-MEL-28 melanoma = test system: SK-MEL-28 melanoma
SK-MEL-5 melanoma = test system: SK-MEL-5 melanoma
SK-OV-3 ovarian = test system: SK-OV-3 ovarian
SN12C renal = test system: SN12C renal
SNB-19 CNS = test system: SNB-19 CNS
SNB-75 CNS = test system: SNB-75 CNS
SNB-78 CNS = test system: SNB-78 CNS
SR leukemia = test system: SR leukemia
SW-620 colon = test system: SW-620 colon
TK-10 renal = test system: TK-10 renal
U251 CNS = test system: U251 CNS
UACC-257 melanoma = test system: UACC-257 melanoma
UACC-62 melanoma = test system: UACC-62 melanoma
UO-31 renal = test system: UO-31 renal
XF 498 CNS = test system: XF 498 CNS
NCI-H522 lung = test system: NCI-H522 lung
RXF-631 renal = test system: RXF-631 renal

Measured: TGI

Cc1cc2c(cc1Br)C1(C)CCC(C)C1(C)O2 (stereo unspecified)
32.1 µM: RXF 393 renal
54.6 µM: SF-295 CNS
37.6 µM: K-562 leukemia
53.2 µM: OVCAR-3 ovarian
56.1 µM: CCRF-CEM leukemia
35.6 µM: MOLT-4 leukemia
53.7 µM: HOP-92 NSCLC | NCI-H460 lung
35.4 µM: LOX IMVI melanoma
52 µM: DMS 114 small cell lung
50.4 µM: DMS 273 small cell lung
34.1 µM: HL-60(TB) leukemia
70.1 µM: M19-MEL melanoma
80.1 µM: SK-MEL-5 melanoma
50 µM: NCI-H226 lung
67.4 µM: NCI-H23 lung
80.9 µM: SN12C renal
42.1 µM: MALME-3M melanoma
98.8 µM: UACC-257 melanoma
30.5 µM: SR leukemia
29.1 µM: HCT-116 colon
37.8 µM: SK-MEL-2 melanoma
66.8 µM: 786-0 renal
50.6 µM: XF 498 CNS
50.5 µM: U251 CNS
29.8 µM: COLO 205 colon
33.2 µM: RPMI-8226 leukemia
not listed: NCI-H522 lung | RXF-631 renal
> 100 µM: all other assays above

COc1ccc2c(c1)CCCC1C3=NCCC3(C)CSC21 (stereo unspecified)
44.7 µM: HL-60(TB) leukemia
72.7 µM: KM20L2 colon
not listed: A498 renal | ACHN renal | CAKI-1 renal | DLD-1 colon | EKVX NSCLC | HCC-2998 colon | HCT-15 colon | HOP-62 NSCLC | HOP-92 NSCLC | MALME-3M melanoma | NCI-H226 lung | OVCAR-5 ovarian | SK-MEL-2 melanoma | SR leukemia | UACC-257 melanoma | UO-31 renal | RXF-631 renal
> 100 µM: all other assays above

CN1CCCCC(C(O)(c2ccccc2)c2ccccc2)C1=O (stereo unspecified)
32.1 µM: HCT-15 colon
65.7 µM: RPMI-8226 leukemia
56.9 µM: HCT-116 colon
25.9 µM: SW-620 colon
not listed: CAKI-1 renal | HL-60(TB) leukemia
> 100 µM: all other assays above

CN(CCN(C)C(=O)CCOS(C)(=O)=O)C(=O)CCOS(C)(=O)=O
not listed: M19-MEL melanoma | RXF 393 renal | UO-31 renal | RXF-631 renal
> 100 µM: all other assays above
